# Laboratory results as given in patent US20040102320A1, “NATURAL HERBICIDE FOR WEED REMOVAL” (priority 2002, published 2004).
# System: grass, including crabgrass and other weeds
# Conditions: 100% of sodium bicarbonate
smiles,measurement,value
O=C([O-])O.[Na+] [sodium bicarbonate],killing of grass,"would kill grass, including crabgrass and other weeds"
